Non-standard residues stand in square brackets, D forms with d. Residues, ends and D or L forms follow the SMILES beside them. No end group written: not given here. *: point of attachment. Palmitoyl = CCCCCCCCCCCCCCCC(=O)*
Columns and labels:
OIR model mice [1] = test: Fundus angiogenesis in OIR model (Isolectin B4, confocal); assay type: in vivo, mouse; conditions: for percentage of abnormal blood vessels in the total retinal area: 2 nmol injected into the vitreous on day 12, read on day 17; for treatment effect on fundus angiogenesis compared with BMA-12: 2 nmol vs 1 μg BMA-12, intravitreal
Method: Treatment group (OIR): After giving birth, 3-4 month old C57BL/6 mother mice were placed in an oxygen chamber with 75% oxygen together with 7 day old young mice, and the young mice and the mother mice were taken out on the 12th day of birth of the young mice. Immediately after the young mice were anesthetized, 2 nmol of FH, 2 nmol of FG, and 1 μg of Sema4D neutralizing antibody (BMA-12) (BMA-12, i.e., anti-Sema4D) were injected into the vitreous, and an equal volume of DMSO was used as a control. The young mice were then further raised in normal air for 5 days; the young mice were anesthetized on the 17th day of birth, and after cardiac perfusion with normal saline, the eyeballs were separated and then fixed, stained with Isolectin B4 overnight at 4° C., flatly spread on a glass slide, and photographed.
Control group (Normal): Young mice, grown with normoxia, were anesthetized on the 17th day of birth. After cardiac perfusion with normal saline, the eyeballs were taken out, and the retinas were peeled off and then fixed with 4% paraformaldehyde, stained with Isolectin B4 at 4° C. overnight, flatly spread on a glass slide, and photographed
Laser confocal was carried out to detect retinal angiogenesis, and ImageJ was carried out to calculate the ratio of retinal neovascularization clusters to the entire retinal area, that is, the proportion of new blood vessels. […] It can be seen in FIG. 4A that the treatment effect of FH is the best.

[2] = tested on: primary mouse brain microvascular endothelial cells; test: sSema4D-induced endothelial cell migration (transwell experiment); assay type: cell-based; conditions: 24 h; for inhibition of endothelial cell migration compared with BMA-12: 20 μM vs BMA-12 2 μg/μL; for sSema4D-induced endothelial cell migration: 20 μM, sSema4D 1600 ng/mL
Method: The primary mouse brain microvascular endothelial cells were starved with 0.5% ECM for 4 to 6 h. The mouse brain microvascular endothelial cells were seeded in the upper layer of a 24-well transwell chamber ([…]). 1% ECM medium containing FH (20 μM), FG (20 μM), and Sema4D neutralizing antibody (BMA-12) (2 μg/μL) (the concentration of sSema4D in the medium is 1600 ng/mL) was added to the lower chamber, and an equal volume of DMSO was added as control. The cells were incubated in a 5% CO2 incubator at 37° C. for 24 h. 24 h later, the cells on the bottom of the chamber were fixed with 4% paraformaldehyde and stained with crystal violet, and the endothelial cells that penetrated to the bottom of the chamber were counted under a microscope.

sSema4D [3] = target: T1, sSema4D (Mus musculus, UniProt O09126); test: ELISA of sSema4D in vitreous humor after eye drops; assay type: in vivo; parameters: from tissue; host or cells: vitreous humor of C57 mice; conditions: eye drops 10 μL of 20 μM, twice daily, 3 days
T1 sequence (O09126 24-733 limits assumed): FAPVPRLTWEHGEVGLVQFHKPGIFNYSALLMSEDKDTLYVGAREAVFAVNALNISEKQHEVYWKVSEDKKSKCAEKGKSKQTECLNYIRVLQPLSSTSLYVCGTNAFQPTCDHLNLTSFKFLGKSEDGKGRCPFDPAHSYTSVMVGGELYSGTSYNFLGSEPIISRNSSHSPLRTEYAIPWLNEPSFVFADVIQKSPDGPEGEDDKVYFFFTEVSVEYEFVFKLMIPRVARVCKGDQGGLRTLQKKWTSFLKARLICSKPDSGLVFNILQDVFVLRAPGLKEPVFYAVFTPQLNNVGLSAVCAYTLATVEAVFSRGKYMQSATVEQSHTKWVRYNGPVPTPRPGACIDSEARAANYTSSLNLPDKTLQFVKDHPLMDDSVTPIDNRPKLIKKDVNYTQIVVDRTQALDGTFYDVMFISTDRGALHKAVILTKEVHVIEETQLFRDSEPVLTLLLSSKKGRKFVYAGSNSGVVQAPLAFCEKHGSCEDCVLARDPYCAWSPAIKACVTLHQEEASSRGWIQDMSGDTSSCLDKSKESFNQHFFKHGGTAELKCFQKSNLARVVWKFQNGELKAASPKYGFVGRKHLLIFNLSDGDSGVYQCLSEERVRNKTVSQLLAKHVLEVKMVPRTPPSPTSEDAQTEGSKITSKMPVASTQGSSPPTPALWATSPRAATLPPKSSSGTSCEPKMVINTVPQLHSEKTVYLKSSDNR
Source text: In this example, 8-week-old C57 male mice were used, with ten data points in each group, and each data point was the average of the experimental results of 5 mice.
The water on the eyeballs was then removed with filter paper to release and collect the vitreous humor. ELISA kit (Shanghai Yuanmu Biotechnology Co., Ltd.) was used to detect the expression of sSema4D protein in vitreous humor.
Control group was instilled with the same volume of PBS solution; vehicle group was instilled the same volume of artificial tears (Systane).

[4] = tested on: primary mouse brain microvascular pericytes; test: sSema4D-induced pericyte migration (transwell experiment); assay type: cell-based; conditions: 36 h; for sSema4D-induced pericyte migration: 20 μM, sSema4D 1600 ng/mL
Method: The primary mouse brain microvascular pericytes were starved with 0.5% PM for 4 to 6 h. The pericytes were seeded in the upper layer of a 24-well transwell chamber (8 μm). The medium containing FH (20 μM), FG (20 μM), and Sema4D neutralizing antibody (BMA-12) (2 μg/μL) (the concentration of sSema4D in the medium is 1600 ng/mL) was added to the lower chamber, and an equal volume of DMSO was added as control. The cells were incubated in a 5% CO2 incubator at 37° C. for 36 h. 36 h later, the cells on the bottom of the chamber were fixed with 4% paraformaldehyde and stained with crystal violet, and the pericytes that penetrated to the bottom of the chamber were counted under a microscope.

sSema4D [5] = target: T1, sSema4D; test: Reduction of sSema4D concentration in endothelial cell culture medium (ELISA); assay type: cell-based; conditions: for sSema4D concentration: medium with 1600 ng/mL sSema4D, FH 20 μM, BMA-12 2 μg/μL; for sustained reduction of sSema4D concentration: added to endothelial cells, 12 to 48 h
Method: Endothelial cells were uniformly seeded in 6-well cell culture plates and cultured in a 5% CO2 incubator at 37° C. for 24 h. The nano small peptides FH, FG, DMSO, and Sema4D neutralizing antibody (BMA-12) were added to the medium (the concentration of sSema4D in the medium was 1600 ng/mL) to ensure that the final concentration of FH and FG was 20 μM, and the final concentration of the sSema4D neutralizing antibody (BMA-12) was 2 μg/μL, an equal volume of DMSO was then added as a control, and the culture plates were cultured in an incubator for 12, 24, 36, and 48 h, respectively. The cell culture medium was then collected and centrifuged. The supernatant was taken and the expression of Sema4D protein in the supernatant was detected using an ELISA kit (Shanghai Yuanmu Biotechnology Co., Ltd.).

OIR model mice [6] = test: Evans blue leakage test, fundus vascular leakage; assay type: in vivo, mouse; conditions: for vascular leakage of the fundus: 2 nmol injected into the vitreous; for treatment effect on vascular leakage compared with anti-Sema4D: 2 nmol vs 1 μg BMA-12, intravitreal

Row | sSema4D concentration (sSema4D [5]; 24 h, endothelial cells) | effect on sSema4D concentration, FH compared with FG (sSema4D [5]; endothelial cells, within the same action time, 20 μM) | Molecule | percentage of abnormal blood vessels in the total retinal area (OIR model mice [1]) | treatment effect among groups in FIG. 4A (OIR model mice [1]; 2 nmol intravitreal) | treatment effect on fundus angiogenesis compared with BMA-12 (OIR model mice [1]) | inhibition of endothelial cell migration compared with BMA-12 [2] | sSema4D-induced endothelial cell migration [2] | expression of sSema4D protein in the vitreous humor (sSema4D [3]) | inhibition of pericyte migration compared with BMA-12 ([4]; 20 μM vs BMA-12 2 μg/μL) | sSema4D-induced pericyte migration [4] | sSema4D concentration (sSema4D [5]; 36 h, endothelial cells) | sustained reduction of sSema4D concentration (sSema4D [5]; 20 μM) | vascular leakage of the fundus (OIR model mice [6]) | treatment effect on vascular leakage compared with anti-Sema4D (OIR model mice [6])
1 | can reduce the sSema4D concentration | better than that of FG | CCCCCCCCCCCCCCCC(=O)N[C@H](Cc1ccccc1)C(=O)N[C@@H](Cc1ccccc1)C(=O)N[C@H](C(=O)N[C@@H](CC(C)C)C(=O)N[C@@H](CCCCN)C(=O)N[C@@H](CCCCN)C(=O)N[C@@H](CCC(N)=O)C(=O)N[C@@H](CCCCN)C(=O)N[C@@H](CCCNC(=N)N)C(=O)N1CCC[C@H]1C(=O)N[C@@H](CCCNC(=N)N)C(=O)N[C@@H](Cc1c[nH]cn1)C(=O)O)C(C)C [FH] (Palmitoyl-[dF]FVLKKQKRPRH-OH) | reduce the percentage of abnormal blood vessels in the total retinal area | the best | comparable to that of the Sema4D neutralizing antibody (BMA-12) | more effective in inhibiting endothelial cell migration than Sema4D neutralizing antibody (BMA-12) | can significantly inhibit the sSema4D-induced endothelial cell migration | reduce the expression of sSema4D protein in the vitreous humor | more effective in inhibiting pericyte migration than Sema4D neutralizing antibody (BMA-12) | can significantly inhibit the sSema4D-induce pericyte migration | can still reduce the sSema4D concentration | can sustainably reduce the concentration of sSema4D | can inhibit vascular leakage of the fundus | comparable to that of anti-Sema4D
2 |  |  | Palmitoyl-FFVLKKNKAAKG [FG] | reduce the percentage of abnormal blood vessels in the total retinal area |  | comparable to that of the Sema4D neutralizing antibody (BMA-12) | more effective in inhibiting endothelial cell migration than Sema4D neutralizing antibody (BMA-12) | can significantly inhibit the sSema4D-induced endothelial cell migration | reduce the expression of sSema4D protein in the vitreous humor |  | can significantly inhibit the sSema4D-induce pericyte migration |  | can sustainably reduce the concentration of sSema4D | can inhibit vascular leakage of the fundus | comparable to that of anti-Sema4D

Source: patent publication US11795200B2, “Nano small peptide and its use in preparation of drugs for treating and preventing fundus vascular diseases” (FUTU Biotech Co., Ltd., priority 2021, dated 2023)
